This is an account of results in US11286268B1, “EIF4E-inhibiting compounds and methods” (EFFECTOR THERAPEUTICS, INC., priority 2019, dated 2022).

For this test, the target named is recombinant eIF4E (Homo sapiens (Human), UniProt P06730). The test is described as follows: Fluorescence polarization competition assay for eIF4E binding potency. A digest of the protocol:
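Competition of test compound against 20 nM EDA-m^7GDP-ATTO-550 for 75 nM recombinant eIF4E, pre-incubated 5 min, in 20 mM Tris pH 7.5, 100 mM NaCl, 1 mM DTT, 0.02% Tween-20, 1% DMSO. Equilibrated 30 min at room temperature, dark; fluorescence polarization read. IC50 from 8-point, 3-fold dilution series.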
On the technique in general: Fluorescence polarisation rises when a labelled molecule tumbles more slowly, as on binding a larger partner.

[1] abbreviates: fluorescence polarization competition, 75 nM recombinant eIF4E, 20 nM EDA-m7GDP-ATTO-550, IC50 class, read-out: elF4E FP.
Where [2] appears, read: inhibition of eIF4E/EDA-m7GDP-ATTO-550 binding by 50%, Table 4B calculated values, read-out: IC50.
The mark [3] stands for this setting: inhibition of eIF4E/EDA-m7GDP-ATTO-550 binding, calculated IC50 values, Table 4B, read-out: IC50.

Molecules are shown by their SMILES. Like-named read-outs stand apart in the source and are kept apart here.

Chain of recombinant eIF4E (P06730 whole entry): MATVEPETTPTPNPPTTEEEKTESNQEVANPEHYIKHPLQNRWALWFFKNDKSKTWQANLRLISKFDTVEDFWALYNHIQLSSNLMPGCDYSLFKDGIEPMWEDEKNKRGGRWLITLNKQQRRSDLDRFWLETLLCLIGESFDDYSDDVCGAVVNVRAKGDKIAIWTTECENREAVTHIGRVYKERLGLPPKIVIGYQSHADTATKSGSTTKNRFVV

Consider `Cc1cc(-c2cc(Cl)ccc2OCCn2c(C)nc3cc(C(F)(F)F)cc(C#N)c3c2=O)c2sc(C)c(C(=O)O)c2n1` [compound 668], for which the IC50 is, setting by setting: under setting [1], under 50 nM; under setting [2], 7.76 nM.

On to `Cc1nc2cnc(N(C)C3CCN(CC(C)(F)F)CC3)c(C(N)=O)c2c(=O)n1CC#Cc1ccc(Cl)cc1-c1ccnc2c(C(=O)OC(C)(C)C)csc12` [compound 1960], for which the IC50 under setting [3] was 43200 nM.

Regarding `Cc1nc2ccc(S(=O)(=O)c3ccccn3)c(C#N)c2c(=O)n1CCOc1ccc(Cl)cc1-c1ccnc2c(C(=O)O)csc12` [compound 297], the IC50 runs as follows: under setting [1], under 50 nM; under setting [2], 36.3 nM.

On to `Cc1cc(-c2cc(Cl)ccc2OCCn2c(C)nc3cc(C(F)(F)F)c(-c4cncc(C(F)(F)F)n4)nc3c2=O)c2scc(C(=O)O)c2n1` [compound 1021], for which the IC50 under setting [1] was under 50 nM and the IC50 under setting [2] was 21.1 nM.

`CONC(=O)c1csc2c(-c3cc(Cl)ccc3OCCn3c(C)nc4cc(F)c(F)c(C#N)c4c3=O)ccnc12` [compound 308]: the IC50 runs as follows: under setting [1], 50 to 1000 nM; under setting [2], 811 nM.

On to `Cc1nc2cnc(N3CCC(N(C)C4CC4)CC3)c(C#N)c2c(=O)n1CC#Cc1ccc(Cl)cc1-c1ccnc2c(C(=O)O)csc12` [compound 1527], for which the IC50 under setting [3] was 15.6 nM.

On to `N#Cc1cc2c(=O)n(CCOc3ccc(C(F)F)cc3-c3cccc(C(=O)O)c3)cnc2cn1` [compound 126], for which the IC50 under setting [1] is over 1000 nM and the IC50 under setting [2] was 8360 nM.

For `Cc1nc2cnc(N(C)C3CCN(CC(F)(F)C(F)F)CC3)c(C#N)c2c(=O)n1CC#Cc1ccc(Cl)cc1-c1ccnc2c(C(=O)O)csc12` [compound 1103], the IC50 is, setting by setting: under setting [1], under 50 nM; under setting [2], 14.8 nM.

Regarding `Cc1c(C(F)(F)F)cc2nc(C)n(CC#Cc3ccc(Cl)cc3-c3cn(C)c(=O)c4c(C(=O)O)csc34)c(=O)c2c1C#N` [compound 754], the IC50 was under 50 nM under setting [1] and 17.2 nM under setting [2].

With `Cc1cc(-c2cc(Cl)ccc2OCCn2c(C)nc3c(C(F)(F)F)cc(N4CCN(C)CC4)nc3c2=O)c2scc(C(=O)O)c2n1` [compound 677], the IC50 runs as follows: under setting [1], under 50 nM; under setting [2], 5.44 nM.

In the case of `C#Cc1c(-c2cc(Cl)ccc2OCCn2c(C(F)F)nc3cccc(C#N)c3c2=O)csc1C(=O)O` [compound 2034], the IC50 under setting [3] was 6.2 nM.

Turning to `Cc1nc2cnc(C3CC3)c(C#N)c2c(=O)n1CCOc1ccc(Cl)cc1Cc1cc(C(=O)O)cs1` [compound 970], the IC50 is, setting by setting: under setting [1], 50 to 1000 nM; under setting [2], 166 nM.

In the case of `N#Cc1cc2c(=O)n(CCOc3ccc(Cl)cc3-c3cnc(C(=O)O)s3)cnc2cn1` [compound 54], the IC50 was over 1000 nM under setting [1] and 2280 nM under setting [2].

Take `Cc1nc2cnc(N(C)C3(C)CCN(CC(F)F)CC3)c(C#N)c2c(=O)n1CC#Cc1ccc(Cl)cc1-c1ccnc2c(C(=O)O)csc12` [compound 1413]: under setting [3], the IC50 is 51.7 nM.

On to `Cc1nc2cc(C(F)(F)F)c(N3CCN(c4ccncc4)CC3)c(C#N)c2c(=O)n1CCOc1ccc(Cl)cc1-c1cccc(C(=O)O)c1` [compound 387], for which the IC50 under setting [1] was 50 to 1000 nM and the IC50 under setting [2] is 619 nM.

Regarding `Cc1nc2cnc(N3CC[C@H]4CN(CC(F)F)CC[C@H]43)c(C#N)c2c(=O)n1CC#Cc1ccc(Cl)cc1-c1ccnc2c(C(=O)O)csc12` [compound 1556], the IC50 under setting [3] is 49.9 nM.

`Cc1cc(-c2cc(Cl)ccc2OCCn2c(C)nc3cc(C(F)(F)F)c(CC(=O)N(C)C)c(C#N)c3c2=O)c2scc(C(=O)O)c2n1` [compound 909]: the IC50 reads like this: under setting [1], under 50 nM; under setting [2], 13.2 nM.

On to `Cc1cc(-c2cc(Cl)ccc2OCCn2c(C)nc3cc4c(c(C#N)c3c2=O)CC(N(C)C)C4)c2scc(C(=O)O)c2n1` (stereo not shown) [compound 611], for which the IC50 runs as follows: under setting [1], under 50 nM; under setting [2], 7.76 nM.

`Cc1cc(-c2cc(Cl)ccc2OCCn2c(C)nc3cc(C(F)(F)F)c(C4=CCN(C)CC4)c(C#N)c3c2=O)c2scc(C(=O)O)c2n1` [compound 373]: the IC50 is, setting by setting: under setting [1], under 50 nM; under setting [2], 6.43 nM.

As for `CCN(c1ncc2nc(C)n(CC#Cc3ccc(Cl)cc3-c3ccnc4c(C(=O)NS(=O)(=O)C5COC5)csc34)c(=O)c2c1C#N)C1CCN(C2COC2)CC1` [compound 1750], the IC50 under setting [3] is 16.1 nM.

Turning to `Cc1cc(-c2cc(Cl)ccc2OCCn2c(C)nc3c(C)nc(-c4ccccc4C(F)(F)F)c(C#N)c3c2=O)c2scc(C(=O)O)c2n1` [compound 924], the IC50 under setting [1] was under 50 nM and the IC50 under setting [2] was 14.3 nM.

Consider `Cc1nc2c(F)cc(F)c(C#N)c2c(=O)n1CCOc1ccc(Cl)cc1-c1ccnc2c(C(=O)O)csc12` [compound 241], for which the IC50 under setting [1] is under 50 nM and the IC50 under setting [2] is 4.87 nM.

As for `CCOP(=O)(OCC)c1csc2c(-c3cc(Cl)ccc3OCCn3c(C)nc4cc(C(F)(F)F)c(N5CCN(C)CC5)c(C#N)c4c3=O)ccnc12` [compound 1612], the IC50 under setting [3] is 13.7 nM.

Take `Cc1cc(-c2cc(Cl)ccc2OCCn2c(C)nc3cc(Cl)c(N4CCC(F)(F)CC4)c(C#N)c3c2=O)c2scc(C(=O)O)c2n1` [compound 919]: the IC50 under setting [1] is under 50 nM and the IC50 under setting [2] is 17.7 nM.

Consider `Cc1nc2cc(C(F)(F)F)cc(C#N)c2c(=O)n1CCOc1ccc(Cl)cc1-c1cncc(-c2nn[nH]n2)c1` [compound 660], for which the IC50 is, setting by setting: under setting [1], 50 to 1000 nM; under setting [2], 258 nM.

With `COCC(F)(F)CN1CCC(N(C)c2ncc3nc(C)n(CC#Cc4ccc(Cl)cc4-c4ccnc5c(C(=O)O)csc45)c(=O)c3c2C#N)CC1` [compound 1133], the IC50 under setting [1] is under 50 nM and the IC50 under setting [2] is 17 nM.

Take `Cc1cc(-c2cc(Cl)ccc2OCCn2c(C)nc3ccc(N4CCC(O)C4)c(C#N)c3c2=O)c2scc(C(=O)O)c2n1` (stereo not shown) [compound 1280]: under setting [3], the IC50 was 4.26 nM.

For `Cc1cc(-c2cc(Cl)ccc2OCCn2c(C)nc3cnc(-n4ccc5ccccc54)c(C#N)c3c2=O)c2scc(C(=O)O)c2n1` [compound 983], the IC50 was under 50 nM under setting [1] and 18.9 nM under setting [2].

Regarding `COCc1cc(F)c2cc(C)n(CCOc3ccc(Cl)cc3-c3ccnc4c(C(=O)O)csc34)c(=O)c2c1C#N` [compound 533], the IC50 under setting [1] is 50 to 1000 nM and the IC50 under setting [2] is 62.7 nM.

Consider `CONC(=O)c1csc2c(-c3cc(Cl)ccc3OCCn3c(C)nc4cc(C(F)(F)F)c(Cl)c(C#N)c4c3=O)ccnc12` [compound 521], for which the IC50 runs as follows: under setting [1], 50 to 1000 nM; under setting [2], 623 nM.

For the compound `CSCc1cc(F)c2cc(C)n(CCOc3ccc(Cl)cc3-c3ccnc4c(C(=O)O)csc34)c(=O)c2c1C#N` [compound 534], the IC50 was under 50 nM under setting [1] and 30.2 nM under setting [2].

As for `Cc1nc2cnc(N3CCN(C(C)(C)CC(F)(F)F)CC3)c(C#N)c2c(=O)n1CCOc1ccc(Cl)cc1-c1ccnc2c(C(=O)O)csc12` [compound 845], the IC50 was under 50 nM under setting [1] and 12.7 nM under setting [2].

As for `Cc1nc2cc(C#N)c(F)c(C#N)c2c(=O)n1CCOc1ccc(Cl)cc1-c1ccnc2c(C(=O)O)csc12` [compound 240], the IC50 is under 50 nM under setting [1] and 9.78 nM under setting [2].

For the compound `Cc1nc2cnc(N(C)C3CCN(CCC(F)(F)F)CC3)c(C#N)c2c(=O)n1CC#Cc1ccc(Cl)cc1-c1ccnc2c(C(=O)O)csc12` [compound 1520], the IC50 under setting [3] is 17.9 nM.

In the case of `Cc1nc2cnc(N(C)C3CCN([C@H]4C[C@H](OC(F)F)C4)CC3)c(C#N)c2c(=O)n1CC#Cc1ccc(Cl)cc1-c1ccnc2c(C(=O)O)csc12` [compound 1135], the IC50 runs as follows: under setting [1], under 50 nM; under setting [2], 34.3 nM.
